Converted amounts (≈) assume the structure as drawn. Where two headings read alike, the source gives them in different places.

Series [1] relates to P. aeruginosa A-9843a. As to the kind of experiment: Protective effect in the intramuscular treatment of infected mice (PD50). Conditions: Pseudomonas aeruginosa, A9843A, im, read-out: PD50/treatment, P. aeruginosa A9843A. The class given is in vivo. Here is the method:
The PD50 (dose in mg/kg required to give protection to 50% of the infected mice) is indicated.
Treatment Schedule: Mice were treated i.m. with drugs 0 and 2 hours post-infection; 5 mice per dose were used for each test
*For compound of Ex. 2, mice were infected i.p. with 2 × 10^9
compounds of Ex. 4 and 5, mice were infected i.p. with ~9 ×
were treated i.m. with drugs 0 and 2 h postinfection.

Series [2] deals with E. coli A15119. As to the kind of experiment: In vitro MIC, tube dilution. Conditions: Escherichia coli, A15119, tube dilution, Nutrient Broth, overnight incubation at 37° C.; additional data table. The class given is cell-based.
For series [3], the system named is P. rettgeri A22424. Briefly: In vitro MIC, tube dilution. The format is cell-based. Conditions: Providencia rettgeri, A22424, tube dilution, Nutrient Broth, overnight incubation at 37° C.; additional data table.
The test system of series [4] is K. pneumoniae A20468. As to the kind of experiment: In vitro MIC, tube dilution. The format is cell-based. To be noted: Klebsiella pneumoniae, A20468, tube dilution, Nutrient Broth, overnight incubation at 37° C.; additional data table.
In series [5] the test system is S. pyogenes A-9604. As to the kind of experiment: In vitro MIC, tube dilution. The class given is cell-based. To be noted: Streptococcus pyogenes, A9604, tube dilution, Nutrient Broth, overnight incubation at 37° C.; additional data table.
In series [6] the test system is P. aeruginosa A21213. As to the kind of experiment: In vitro MIC, tube dilution. The format is cell-based. Conditions: Pseudomonas aeruginosa, A21213, tube dilution, Nutrient Broth, overnight incubation at 37° C.; additional data table.
Series [7] concerns P. vulgaris A21559. Briefly: In vitro MIC, tube dilution. The class given is cell-based. To be noted: Proteus vulgaris, A21559, tube dilution, Nutrient Broth, overnight incubation at 37° C.; additional data table.
Series [8] concerns S. marcescens A20019. Briefly: In vitro MIC, tube dilution. Conditions: Serratia marcescens, A20019, tube dilution, Nutrient Broth, overnight incubation at 37° C.; additional data table. The format is cell-based.
The test system of series [9] is E. cloacae A-9656. As to the kind of experiment: In vitro MIC, tube dilution. The format is cell-based. To be noted: Enterobacter cloacae, A9656, tube dilution, Nutrient Broth, overnight incubation at 37° C.; additional data table.
Series [10] relates to S. aureus A-9537. Briefly: In vitro MIC, tube dilution. The format is cell-based. Conditions: Staphylococcus aureus, overnight incubation at 37° C., additional data table.
For series [11], the system named is K. pneumoniae A-9664. Briefly: In vitro MIC, tube dilution. The class given is cell-based. Conditions: Klebsiella pneumoniae, A9664, tube dilution, Nutrient Broth, overnight incubation at 37° C.; additional data table.
For series [12], the system named is P. morganii A15153. As to the kind of experiment: In vitro MIC, tube dilution. The class given is cell-based. To be noted: Morganella morganii, A15153, tube dilution, Nutrient Broth, overnight incubation at 37° C.; additional data table; read-out: MIC M. morganii A15153.
Series [13] concerns P. aeruginosa A-9843A. Briefly: In vitro MIC, tube dilution. The format is cell-based. To be noted: Pseudomonas aeruginosa, A9843A, Nutrient Broth, overnight incubation at 37° C., additional data table.
Series [14] is described as follows: Half-life in phosphate buffer solution. The format is physicochemical. To be noted: phosphate buffer, pH 7.4, concentration of 10^-4 M in phosphate buffer pH 7.4 at 36.8° C.; read-out: t1/2 (solution stability) (converted). As to the method:
A solution of para-nitrobenzyl 3-[2-(N-methylthiomorpholinium diphenylphosphate)ethylthio]-6α-[1'-(R)-hydroxyethyl]-7-oxo-1-azabicyclo[3.2.0]hept-2-ene-2-carboxylate (1.31 g, 1.76 mmol) in 0.1 M pH 7.4 phosphate buffer (48.8 mL), tetrahydrofuran (20 mL) and diethyl ether (20 mL) was hydrogenated over 10% pd/C (1.5 g) in a Parr shaker for 1 h at 40 psi. The reaction mixture was diluted with diethyl ether (40 mL) and the phases were separated. The organic phase was washed with water (2×5 mL). The aqueous phases were combined, filtered through a #52 hardened filter paper, washed with diethyl ether (2×20 mL) and pumped under vacuum. The aqueous solution was poured on a silica gel reverse phase column and the desired carbapenem was eluted with 5% acetonitrile-water.
To a solution of p-nitrobenzyl (5R,6S)-3-[2-(1-methylmorpholino)ethylthio]-6-[(R)-1-hydroxyethyl]-7-oxo-1-azabicyclo[3.2.0]hept-2-ene-2-carboxylate diphenylphosphate (0.360 g, 0.49 mmol) in 13 mL of phosphate buffer (0.05 M pH 7.4) was added 0.36 g of 10% palladium-on-charcoal, 20 mL of tetrahydrofuran and 20 mL of diethyl ether. This mixture was hydrogenated (Parr) at 32 psi for 1 h. The mixture was filtered through Celite and the filter pad was washed with H2 O and diethyl ether. The aqueous phase was separated and the pH was adjusted to 7.0 with additional pH 7.4 phosphate buffer. After removing residual organic solvents in vacuo the aqueous solution was applied to a C18 reverse-phase column.
To a solution of (5R,6S)paranitrobenzyl 3-[2-(1,4-dimethyl-1-piperazinium)ethylthio]-6-[1-(R)-hydroxyethyl]-7-oxo- 1-azabicyclo[3.2.0]hept-2-ene-2-carboxylate diphenylphosphate (0.47 g, 0.623 mmol) in wet tetrahydrofuran (25 mL) was added diethyl ether (25 mL), potassium phosphate monobasic-sodium hydroxide buffer (13 mL, pH 7.22) and 10% palladium on charcoal (0.47 g). The resulting mixture was hydrogenated at 23° C. under 40 psi for 1 h. The two layers were separated and the organic layer was extracted with water (2×7 mL).
To a cold (-10° C.) solution of (5R,6S)-3-[2 -(N-methyl-thiomorpholinium)ethylthio]-6-[1-(R)-hydroxyethyl]-7-oxo-1-azabicyclo(3.2.0)-hept-2-ene-2-carboxylate (608 mg, 1.65 mmol) in a 1:1 mixture of acetonitrile-water (9 mL) was added m-chloroperbenzoic acid (334.8 mg, 1.65 mmol) in small portion over a 1 hour period. The mixture was then diluted with water (15 mL) and washed with diethyl ether (3×15 mL).
A mixture of (5R,6S) paranitrobenzyl 3-[2-(1,4,4-trimethyl-1-piperazinium)ethylthio]-6-[1R-hydroxyethyl]-7-oxo- 1-azabicyclo(3.2.0)hept-2-ene-2-carboxylate bischloride (0.40 g, 0.68 mmol), phosphate buffer (30 mL, 0.05M, pH 7.0), tetrahydrofuran (10 mL), ether (30 mL) and 10% palladium on charcoal (0.40 g) was hydrogenated at 23° C. under 35 psi for 1 h. The two phases were separated. The organic phase was extracted with water (10 mL).

Series [15] relates to S. aureus A-9606 (Pen-res.). Briefly: In vitro MIC, tube dilution. The class given is cell-based. Conditions: Staphylococcus aureus, Nutrient Broth, overnight incubation at 37° C., additional data table, read-out: MIC S. aureus (Pen-res.) A-9606.

A word on the MIC: it is the lowest concentration found to suppress growth. Turning to `C[C@@H](O)[C@H]1C(=O)N2C(C(=O)[O-])=C(SCC[N+]3(C)CCN(C)CC3)C[C@H]12` [Example 4, (5R,6S)3-[2-(1,4-dimethyl-1-piperazinium)-ethylthio]-6-[1-(R)-hydroxyethyl]-7-oxo-1-azabicyclo-[3.2.0]hept-2-ene-2-carboxylate], the ED50 in [1] came to 2.7 mg/kg. The MIC amounted to 0.13 mg/L (≈ 0.352 µM) in series [2]; 1 mg/L (≈ 2.71 µM) in series [3]; 0.5 mg/L (≈ 1.35 µM) in series [4]; 0.004 mg/L (≈ 0.0108 µM) in series [5]; 1 mg/L (≈ 2.71 µM) in [6]; 0.25 mg/L (≈ 0.677 µM) in series [7]. Further, the MIC came out at 0.25 mg/L (≈ 0.677 µM) in [8]; 2 mg/L (≈ 5.41 µM) in series [9]; 0.06 mg/L (≈ 0.162 µM) in series [10] (A9537, 50% serum, tube dilution, read-out: MIC S. aureus-50% serum A-9537); 0.03 mg/L (≈ 0.0812 µM) in series [10] (A9537, tube dilution, Nutrient Broth, read-out: MIC S. aureus A-9537); 0.25 mg/L (≈ 0.677 µM) in series [11]; 1 mg/L (≈ 2.71 µM) in series [12]. Moreover, the MIC in [13] was determined as 16 mg/L (≈ 43.3 µM); in series [15], 0.06 mg/L (≈ 0.162 µM). Further, in [14], the half-life was 12.4 h.

The values are drawn from patent US4536335A, “Carbapenem antibiotics” (Bristol-Myers Company, priority 1983, dated 1985).
